Measurements published in ChEMBL document CHEMBL1201862, “PubChem BioAssay data set” (2004).
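Five concentrations, 48 hours, 96-well plates. GI50 is the concentration that inhibits growth by half.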 Calls of active or inactive are those of the source. No stated cut-off is given here; in the data, active = GI50 up to about 1.1 µM and inactive = higher.

Columns and labels:
Assay in all cases: NCI-60 cell line screen, 48 h
OVCAR-5 = test system: OVCAR-5
MDA-MB-435 = test system: MDA-MB-435
786-0 = test system: 786-0
MOLT-4 = test system: MOLT-4
SF-295 = test system: SF-295
OVCAR-8 = test system: OVCAR-8
SW-620 = test system: SW-620
EKVX = test system: EKVX
SK-MEL-2 = test system: SK-MEL-2
K562 = test system: K562
T47D = test system: T47D
SR = test system: SR
IGROV-1 = test system: IGROV-1
NCI-H460 = test system: NCI-H460
PC-3 = test system: PC-3
NCI-H23 = test system: NCI-H23
UO-31 = test system: UO-31
SK-MEL-28 = test system: SK-MEL-28
UACC-257 = test system: UACC-257
SNB-75 = test system: SNB-75
HOP-62 = test system: HOP-62
SN12C = test system: SN12C
SF-539 = test system: SF-539
BT-549 = test system: BT-549
OVCAR-4 = test system: OVCAR-4
LOX IMVI = test system: LOX IMVI
Malme-3M = test system: Malme-3M
CCRF-CEM = test system: CCRF-CEM
OVCAR-3 = test system: OVCAR-3
HT-29 = test system: HT-29
UACC-62 = test system: UACC-62
HCC 2998 = test system: HCC 2998
SK-OV-3 = test system: SK-OV-3
U-251 = test system: U-251
NCI-H522 = test system: NCI-H522
A549 = test system: A549
RPMI-8226 = test system: RPMI-8226
CAKI-1 = test system: CAKI-1
MCF7 = test system: MCF7
HCT-116 = test system: HCT-116
NCI/ADR-RES = test system: NCI/ADR-RES
COLO 205 = test system: COLO 205
TK-10 = test system: TK-10
M14 = test system: M14
HL-60 = test system: HL-60
NCI-H226 = test system: NCI-H226
Hs-578T = test system: Hs-578T
ACHN = test system: ACHN
HOP-92 = test system: HOP-92
SNB-19 = test system: SNB-19
DU-145 = test system: DU-145
HCT-15 = test system: HCT-15
MDA-MB-231 = test system: MDA-MB-231
RXF 393 = test system: RXF 393
KM12 = test system: KM12
SK-MEL-5 = test system: SK-MEL-5
SF-268 = test system: SF-268
A498 = test system: A498

Measured: GI50

CCCCCCc1cc2cc(-c3cn4c(n3)sc3ccccc34)c(=O)oc2cc1O
> 75.7 µM: HCT-15
inactive: OVCAR-5 > 100 µM | MDA-MB-435 3.46 µM | 786-0 > 31.6 µM | MOLT-4 > 100 µM | SF-295 > 100 µM | OVCAR-8 5.82 µM | SW-620 > 78.7 µM | EKVX 99.8 µM | SK-MEL-2 > 100 µM | K562 > 100 µM | T47D > 100 µM | SR > 29.8 µM | IGROV-1 > 100 µM | NCI-H460 > 100 µM | PC-3 > 100 µM | NCI-H23 > 100 µM | UO-31 > 100 µM | SK-MEL-28 3.39 µM | UACC-257 4.42 µM | SNB-75 > 78.5 µM | HOP-62 73.1 µM | SN12C > 100 µM | SF-539 > 100 µM | BT-549 > 100 µM | OVCAR-4 3.98 µM | LOX IMVI > 100 µM | Malme-3M 2.36 µM | CCRF-CEM > 100 µM | OVCAR-3 > 100 µM | HT-29 15.4 µM | UACC-62 2.36 µM | HCC 2998 > 100 µM | SK-OV-3 > 100 µM | U-251 > 100 µM | NCI-H522 > 90.4 µM | A549 > 100 µM | RPMI-8226 > 100 µM | CAKI-1 > 100 µM | MCF7 > 100 µM | HCT-116 > 95.1 µM | NCI/ADR-RES > 100 µM | COLO 205 > 100 µM | TK-10 > 100 µM | M14 4.94 µM | HL-60 > 60.3 µM | NCI-H226 > 100 µM | Hs-578T > 25.1 µM | ACHN > 100 µM | HOP-92 > 100 µM | SNB-19 > 100 µM | DU-145 > 100 µM | MDA-MB-231 > 100 µM | RXF 393 > 48.3 µM | KM12 > 26.9 µM | SK-MEL-5 > 100 µM | SF-268 > 100 µM

CC1=C(C(=O)N(C)c2ccc(Cl)c(C(=O)OC(C)C)c2)SCCO1
inactive: OVCAR-5 > 100 µM | MDA-MB-435 48.6 µM | A498 74.3 µM | 786-0 > 100 µM | MOLT-4 38.5 µM | SF-295 60.1 µM | OVCAR-8 70.6 µM | SW-620 > 100 µM | EKVX 41.8 µM | SK-MEL-2 > 100 µM | K562 29 µM | T47D 31.2 µM | IGROV-1 98.6 µM | NCI-H460 > 100 µM | PC-3 38.5 µM | NCI-H23 44.2 µM | UO-31 27.2 µM | SK-MEL-28 > 100 µM | UACC-257 43.3 µM | SNB-75 18.7 µM | SN12C > 100 µM | SF-539 > 100 µM | BT-549 40.9 µM | OVCAR-4 42.4 µM | LOX IMVI > 100 µM | Malme-3M 72.3 µM | CCRF-CEM > 100 µM | OVCAR-3 > 100 µM | HT-29 46.7 µM | UACC-62 53.1 µM | HCC 2998 > 100 µM | SK-OV-3 > 100 µM | U-251 92.3 µM | NCI-H522 44.9 µM | A549 90.2 µM | RPMI-8226 26.6 µM | CAKI-1 > 100 µM | MCF7 66.5 µM | HCT-116 59.2 µM | NCI/ADR-RES 26.7 µM | COLO 205 70.8 µM | TK-10 84.7 µM | M14 > 100 µM | HL-60 33.7 µM | NCI-H226 44.6 µM | Hs-578T > 100 µM | ACHN 61.5 µM | HOP-92 > 100 µM | SNB-19 74.6 µM | DU-145 > 100 µM | MDA-MB-231 > 100 µM | KM12 55 µM | SK-MEL-5 29.6 µM | SF-268 > 100 µM
74 µM: HCT-15
